Earlier results as cited in patent US6201025A, “N-aralkylaminotetralins as ligands for the neuropeptide Y Y5 receptor” (Ortho-McNeil Pharmaceutical, Inc., priority 1999, dated 2001).

Legend:
[1] = test system: live animals; settings: icv or into the amygdala; cited from earlier work
[2] = test system: animal models of learning; settings: cited from earlier work
[3] = test system: food intake in rats; settings: satiated rats; as little as one-billionth of a gram; cited from earlier work
[4] = test system: luteinizing hormone (LH); settings: rodents; cited from earlier work
[5] = test system: rodents; settings: intracerebroventricularly; cited from earlier work
[6] = test system: forskolin-stimulated cAMP production/levels in a neuroblastoma cell line; settings: cited from earlier work
[7] = test system: feeding in animals; settings: cited from earlier work
[8] = test system: classic Y1 receptor; settings: cited from earlier work

Row | Substance | effect in animal models of anxiety [1] | memory and performance scores [2] | effect on food intake, injected directly into the CNS [3] | release of luteinizing hormone (LH) [4] | anxiogenic effect [5] | effect on forskolin-stimulated cAMP production/levels [6] | feeding response [7] | binding at the classic Y1 receptor [8]
1 | neuropeptide Y [NPY] | produces anxiolytic effects | improves memory and performance scores | causes satiated rats to overeat | mediates endocrine functions such as the release of luteinizing hormone (LH) | not anxiogenic | inhibits forskolin-stimulated cAMP production/levels | – | –
2 | NPY2-36: NPY fragment | – | – | – | – | – | – | potent inducer of feeding | poor binding
